{
  "source": "patent US9428464B2",
  "about": "“Kynurenine-3-monooxygenase inhibitors, pharmaceutical compositions, and methods of use thereof” (CHDI Foundation, Inc., priority 2011, dated 2016)",
  "test_system": "KMO",
  "experiment": "KMO activity assay: L-Kynurenine hydroxylation to 3-Hydroxy-Kynurenine, quantified by LC/MS",
  "type": "biochemical",
  "settings": "compound at 10 uM, footnote: some portion of activity of amides may be due to contribution of acid precursor",
  "method": "A generalized procedure for monitoring L-Kynurenine (KYN) hydroxylation to form product 3-Hydroxy-Kynurenine (3OH-KYN) by LC/MS is described below. Product is quantified by multiple reaction monitoring using MS.\nA method of monitoring L-Kynurenine (KYN) hydroxylation to form product 3-Hydroxy-Kynurenine (3OH-KYN) by LC/MS is described below. Product is quantified by multiple reaction monitoring.\n• Compound: Stock concentrations: 10 mM in 100% DMSO • Enzyme: KMO enzyme prepared at Evotec via mitochondria isolation from CHO-GST HIS KMO cells • Substrate: L-Kynurenine (Sigma: Cat #K3750) • [stock concentration: 10 mM in 100 mM potassium phosphate buffer, pH 7.4]\nA method of monitoring L-Kynurenine (KYN) hydroxylation to form 3-Hydroxy-Kynurenine (3OH-KYN) by LC/MS is described. Product is quantified by multiple reaction monitoring (MRM method).",
  "note": "“And” between values parts separate entries of the source, which are not always exact repeats. Equal values may be shown once.",
  "data": [
    {"compound": "CC1(C)CC(NC(=O)c2cc(-c3ccc(Cl)c(Cl)c3)ncn2)CC(C)(C)N1", "note": "[6-(3,4-Dichloro-phenyl)-pyrimidine-4-carboxylic acid (2,2,6,6-tetramethyl-piperidin-4-yl)-amide]", "values": [
      {"measurement": "% Inhibition at 10 uM", "result": 100.11, "unit": "%"}
    ]},
    {"compound": "Cc1cc(C)c(NC(=O)c2cc(-c3ccc(Cl)c(Cl)c3)ncn2)c(C)c1", "note": "[6-(3,4-Dichloro-phenyl)-pyrimidine-4-carboxylic acid (2,4,6-trimethyl-phenyl)-amide]", "values": [
      {"measurement": "% Inhibition at 10 uM", "result": 70.84, "unit": "%"}
    ]},
    {"compound": "Cc1ccnc(C)c1NC(=O)c1cc(-c2ccc(Cl)c(Cl)c2)ncn1", "note": "[6-(3,4-Dichloro-phenyl)-pyrimidine-4-carboxylic acid (2,4-dimethyl-pyridin-3-yl)-amide]", "values": [
      {"measurement": "% Inhibition at 10 uM", "result": 85.37, "unit": "%"}
    ]},
    {"compound": "CN(CCN)C(=O)c1cc(-c2ccc(Cl)c(Cl)c2)ncn1.O=C(O)C(F)(F)F", "note": "[6-(3,4-Dichloro-phenyl)-pyrimidine-4-carboxylic acid (2-amino-ethyl)-methyl-amide, trifluoro-acetic acid salt]", "values": [
      {"measurement": "% Inhibition at 10 uM", "result": 64.52, "unit": "%"}
    ]},
    {"compound": "CC(C)(O)CNC(=O)c1cc(-c2ccc(Cl)c(Cl)c2)ncn1", "note": "[6-(3,4-Dichloro-phenyl)-pyrimidine-4-carboxylic acid (2-hydroxy-2-methyl-propyl)-amide]", "values": [
      {"measurement": "% Inhibition at 10 uM", "result": 57.19, "unit": "%"}
    ]},
    {"compound": "Cc1cnc(NC(=O)c2cc(-c3ccc(Cl)c(Cl)c3)ncn2)c(C)n1", "note": "[6-(3,4-Dichloro-phenyl)-pyrimidine-4-carboxylic acid (3,5-dimethyl-pyrazin-2-yl)-amide]", "values": [
      {"measurement": "% Inhibition at 10 uM", "result": 97.84, "unit": "%"}
    ]},
    {"compound": "Cc1nsc(NC(=O)c2cc(-c3ccc(Cl)c(Cl)c3)ncn2)n1", "note": "[6-(3,4-Dichloro-phenyl)-pyrimidine-4-carboxylic acid (3-methyl-[1,2,4]-thiadiazol-5-yl)-amide]", "values": [
      {"measurement": "% Inhibition at 10 uM", "result": 100.16, "unit": "%"}
    ]},
    {"compound": "Cl.O=C(Nc1cccc(N2CCOCC2)c1)c1cc(-c2ccc(Cl)c(Cl)c2)ncn1", "note": "[6-(3,4-Dichloro-phenyl)-pyrimidine-4-carboxylic acid (3-morpholin-4-yl-phenyl)-amide hydrochloride salt]", "values": [
      {"measurement": "% Inhibition at 10 uM", "result": 99.76, "unit": "%"}
    ]},
    {"compound": "O=C(Nc1cccc(N2CCOCC2)c1)c1cc(-c2ccc(Cl)c(Cl)c2)ncn1", "note": "[6-(3,4-Dichloro-phenyl)-pyrimidine-4-carboxylic acid (3-morpholin-4-yl-phenyl)-amide]", "values": [
      {"measurement": "% Inhibition at 10 uM", "result": 100.15, "unit": "%"}
    ]},
    {"compound": "Cl.O=C(Nc1cccc(C2CNCCN2)c1)c1cc(-c2ccc(Cl)c(Cl)c2)ncn1", "note": "(stereo not shown) [6-(3,4-Dichloro-phenyl)-pyrimidine-4-carboxylic acid (3-piperazin-2-yl-phenyl)-amide hydrochloride salt]", "values": [
      {"measurement": "% Inhibition at 10 uM", "result": 96.58, "unit": "%"}
    ]},
    {"compound": "Cl.O=C(Nc1cccc(C2CCNCC2)c1)c1cc(-c2ccc(Cl)c(Cl)c2)ncn1", "note": "[6-(3,4-Dichloro-phenyl)-pyrimidine-4-carboxylic acid (3-piperidin-4-yl-phenyl)-amide hydrochloride salt]", "values": [
      {"measurement": "% Inhibition at 10 uM", "result": 69.06, "unit": "%"}
    ]},
    {"compound": "O=C(Nc1cc(C(F)(F)F)no1)c1cc(-c2ccc(Cl)c(Cl)c2)ncn1", "note": "[6-(3,4-Dichloro-phenyl)-pyrimidine-4-carboxylic acid (3-trifluoromethyl-isoxazol-5-yl)-amide]", "values": [
      {"measurement": "% Inhibition at 10 uM", "result": 101.875, "unit": "%"}
    ]},
    {"compound": "CN(C)C1(CNC(=O)c2cc(-c3ccc(Cl)c(Cl)c3)ncn2)CCOCC1.Cl", "note": "[6-(3,4-Dichloro-phenyl)-pyrimidine-4-carboxylic acid (4-dimethylamino-tetrahydro-pyran-4-ylmethyl)-amide hydrochloride salt]", "values": [
      {"measurement": "% Inhibition at 10 uM", "result": 96.81, "unit": "%"}
    ]},
    {"compound": "O=C(NCC1(O)CCOCC1)c1cc(-c2ccc(Cl)c(Cl)c2)ncn1", "note": "[6-(3,4-Dichloro-phenyl)-pyrimidine-4-carboxylic acid (4-hydroxy-tetrahydro-pyran-4-ylmethyl)-amide]", "values": [
      {"measurement": "% Inhibition at 10 uM", "result": 74.49, "unit": "%"}
    ]},
    {"compound": "Cl.O=C(Nc1ccc(N2CCOCC2)cc1)c1cc(-c2ccc(Cl)c(Cl)c2)ncn1", "note": "[6-(3,4-Dichloro-phenyl)-pyrimidine-4-carboxylic acid (4-morpholin-4-yl-phenyl)-amide hydrochloride salt]", "values": [
      {"measurement": "% Inhibition at 10 uM", "result": 76.95, "unit": "%"}
    ]},
    {"compound": "O=C(Nc1ccc(N2CCOCC2)cc1)c1cc(-c2ccc(Cl)c(Cl)c2)ncn1", "note": "[6-(3,4-Dichloro-phenyl)-pyrimidine-4-carboxylic acid (4-morpholin-4-yl-phenyl)-amide]", "values": [
      {"measurement": "% Inhibition at 10 uM", "result": 101.19, "unit": "%"}
    ]},
    {"compound": "Cl.O=C(Nc1ccc(N2CCNCC2)cc1)c1cc(-c2ccc(Cl)c(Cl)c2)ncn1", "note": "[6-(3,4-Dichloro-phenyl)-pyrimidine-4-carboxylic acid (4-piperazin-1-yl-phenyl)-amide hydrochloride salt]", "values": [
      {"measurement": "% Inhibition at 10 uM", "result": 93.13, "unit": "%"}
    ]},
    {"compound": "O=C(Nc1ccc(N2CCNCC2)cc1)c1cc(-c2ccc(Cl)c(Cl)c2)ncn1", "note": "[6-(3,4-Dichloro-phenyl)-pyrimidine-4-carboxylic acid (4-piperazin-1-yl-phenyl)-amide]", "values": [
      {"measurement": "% Inhibition at 10 uM", "result": 43.46, "unit": "%"}
    ]},
    {"compound": "Cc1nnc(CNC(=O)c2cc(-c3ccc(Cl)c(Cl)c3)ncn2)o1", "note": "[6-(3,4-Dichloro-phenyl)-pyrimidine-4-carboxylic acid (5-methyl-[1,3,4]oxadiazol-2-ylmethyl)-amide]", "values": [
      {"measurement": "% Inhibition at 10 uM", "result": 100.815, "unit": "%"}
    ]},
    {"compound": "O=C1CCC(NC(=O)c2cc(-c3ccc(Cl)c(Cl)c3)ncn2)N1", "note": "(stereo not shown) [6-(3,4-Dichloro-phenyl)-pyrimidine-4-carboxylic acid (5-oxo-pyrrolidin-2-yl)-amide]", "values": [
      {"measurement": "% Inhibition at 10 uM", "result": 93.08, "unit": "%"}
    ]},
    {"compound": "O=C1CC(NC(=O)c2cc(-c3ccc(Cl)c(Cl)c3)ncn2)CN1", "note": "(stereo not shown) [6-(3,4-Dichloro-phenyl)-pyrimidine-4-carboxylic acid (5-oxo-pyrrolidin-3-yl)-amide]", "values": [
      {"measurement": "% Inhibition at 10 uM", "result": 83.73, "unit": "%"}
    ]},
    {"compound": "CC(C)(C)c1nnc(NC(=O)c2cc(-c3ccc(Cl)c(Cl)c3)ncn2)o1", "note": "[6-(3,4-Dichloro-phenyl)-pyrimidine-4-carboxylic acid (5-tert-butyl-[1,3,4]oxadiazol-2-yl)-amide]", "values": [
      {"measurement": "% Inhibition at 10 uM", "result": 101.4, "unit": "%"}
    ]},
    {"compound": "O=C(Nc1nnc(C(F)(F)F)o1)c1cc(-c2ccc(Cl)c(Cl)c2)ncn1", "note": "[6-(3,4-Dichloro-phenyl)-pyrimidine-4-carboxylic acid (5-trifluoromethyl-[1,3,4]oxadiazol-2-yl)-amide]", "values": [
      {"measurement": "% Inhibition at 10 uM", "result": 102.78, "unit": "%"}
    ]},
    {"compound": "Cc1ccc(NC(=O)c2cc(-c3ccc(Cl)c(Cl)c3)ncn2)nn1", "note": "[6-(3,4-Dichloro-phenyl)-pyrimidine-4-carboxylic acid (6-methyl-pyridazin-3-yl)-amide]", "values": [
      {"measurement": "% Inhibition at 10 uM", "result": 77.125, "unit": "%"}
    ]},
    {"compound": "Cl.O=C(Nc1ccc(N2CCNCC2)nc1)c1cc(-c2ccc(Cl)c(Cl)c2)ncn1", "note": "[6-(3,4-Dichloro-phenyl)-pyrimidine-4-carboxylic acid (6-piperazin-1-yl-pyridin-3-yl)-amide hydrochloride salt]", "values": [
      {"measurement": "% Inhibition at 10 uM", "result": 87.82, "unit": "%"}
    ]},
    {"compound": "O=C(N[C@H]1c2ccccc2C[C@H]1O)c1cc(-c2ccc(Cl)c(Cl)c2)ncn1", "note": "[6-(3,4-Dichloro-phenyl)-pyrimidine-4-carboxylic acid ((1S,2R)-2-hydroxy-indan-1-yl)-amide]", "values": [
      {"measurement": "% Inhibition at 10 uM", "result": 97.78, "unit": "%"}
    ]},
    {"compound": "C[C@@H](NC(=O)c1cc(-c2ccc(Cl)c(Cl)c2)ncn1)c1ccccc1", "note": "[6-(3,4-Dichloro-phenyl)-pyrimidine-4-carboxylic acid ((R)-1-phenyl-ethyl)-amide]", "values": [
      {"measurement": "% Inhibition at 10 uM", "result": 101.25, "unit": "%"}
    ]},
    {"compound": "C[C@@H](NC(=O)c1cc(-c2ccc(Cl)c(Cl)c2)ncn1)c1cccnc1", "note": "[6-(3,4-Dichloro-phenyl)-pyrimidine-4-carboxylic acid ((R)-1-pyridin-3-yl-ethyl)-amide]", "values": [
      {"measurement": "% Inhibition at 10 uM", "result": 90.86, "unit": "%"}
    ]},
    {"compound": "C[C@H](CO)NC(=O)c1cc(-c2ccc(Cl)c(Cl)c2)ncn1", "note": "[6-(3,4-Dichloro-phenyl)-pyrimidine-4-carboxylic acid ((R)-2-hydroxy-1-methyl-ethyl)-amide]", "values": [
      {"measurement": "% Inhibition at 10 uM", "result": 97.775, "unit": "%"}
    ]},
    {"compound": "CC(NC(=O)c1cc(-c2ccc(Cl)c(Cl)c2)ncn1)[C@@H](C)O", "note": "(stereo partly drawn) [6-(3,4-Dichloro-phenyl)-pyrimidine-4-carboxylic acid ((R)-2-hydroxy-1-methyl-propyl)-amide]", "values": [
      {"measurement": "% Inhibition at 10 uM", "result": 66.43, "unit": "%"}
    ]},
    {"compound": "C[C@@H](O)CNC(=O)c1cc(-c2ccc(Cl)c(Cl)c2)ncn1", "note": "[6-(3,4-Dichloro-phenyl)-pyrimidine-4-carboxylic acid ((R)-2-hydroxy-propyl)-amide]", "values": [
      {"measurement": "% Inhibition at 10 uM", "result": 100.71, "unit": "%"}
    ]},
    {"compound": "CC(=O)N1CC[C@H](NC(=O)c2cc(-c3ccc(Cl)c(Cl)c3)ncn2)C1", "note": "[6-(3,4-Dichloro-phenyl)-pyrimidine-4-carboxylic acid ((S)-1-acetyl-pyrrolidin-3-yl)-amide]", "values": [
      {"measurement": "% Inhibition at 10 uM", "setting": "10 µM", "result": "84.87% and 98.54%"}
    ]},
    {"compound": "C[C@H](NC(=O)c1cc(-c2ccc(Cl)c(Cl)c2)ncn1)C(N)=O", "note": "[6-(3,4-Dichloro-phenyl)-pyrimidine-4-carboxylic acid ((S)-1-carbamoyl-ethyl)-amide]", "values": [
      {"measurement": "% Inhibition at 10 uM", "result": 47.73, "unit": "%"}
    ]},
    {"compound": "CC[C@H](NC(=O)c1cc(-c2ccc(Cl)c(Cl)c2)ncn1)C(N)=O", "note": "[6-(3,4-Dichloro-phenyl)-pyrimidine-4-carboxylic acid ((S)-1-carbamoyl-propyl)-amide]", "values": [
      {"measurement": "% Inhibition at 10 uM", "result": 87.6, "unit": "%"}
    ]},
    {"compound": "C[C@H](NC(=O)c1cc(-c2ccc(Cl)c(Cl)c2)ncn1)c1ccccc1", "note": "[6-(3,4-Dichloro-phenyl)-pyrimidine-4-carboxylic acid ((S)-1-phenyl-ethyl)-amide]", "values": [
      {"measurement": "% Inhibition at 10 uM", "result": 102.29, "unit": "%"}
    ]},
    {"compound": "C[C@H](NC(=O)c1cc(-c2ccc(Cl)c(Cl)c2)ncn1)c1cccnc1", "note": "[6-(3,4-Dichloro-phenyl)-pyrimidine-4-carboxylic acid ((S)-1-pyridin-3-yl-ethyl)-amide]", "values": [
      {"measurement": "% Inhibition at 10 uM", "result": 85.1, "unit": "%"}
    ]},
    {"compound": "C[C@H](NC(=O)c1cc(-c2ccc(Cl)c(Cl)c2)ncn1)c1ccncc1", "note": "[6-(3,4-Dichloro-phenyl)-pyrimidine-4-carboxylic acid ((S)-1-pyridin-4-yl-ethyl)-amide]", "values": [
      {"measurement": "% Inhibition at 10 uM", "result": 91.79, "unit": "%"}
    ]}
  ]
}
